The assay concerns MC3T3-E1 cells. Nature of the assay: Osteoblast differentiation induction assay, osteocalcin concentration (EIA). Type of assay: cell-based, mice. The following applies: 3 to 30 μM, 14 days, culture supernatant. The method, then:
As an evaluation method for the effect against the differentiation of osteoblast, MC3T3-E1 cell osteoblast differentiation induction assay was used. In the assay, the activity of alkaline phosphatase (ALP), the early stage differentiation marker enzyme of osteoblast, was determined, and the staining utilizing the activity (ALP staining) was performed. Expression level of osteocalcin, which is the marker of the differentiated osteoblast, was determined by using the EIA kit described above. Furthermore, in order to know the cytotoxicity, the cell viability was determined by using MTT assay. MC3T3-E1 cells were plated into the wells of the 96-well microplate at the concentration of 4×10^3 cells/well, and incubated two days under the presence of 5% of CO2, at 37° C. until cells became confluent in the well. […] The medium was exchanged every 3 or 4 days. In order to determine the concentration of osteocalcin, culture supernatant of MC3T3-E1 cells cultured for 14 days under the above-mentioned conditions was used. Amount of osteocalcin in the culture supernatant was determined according to the procedure written on an instruction manual attached to the EIA kit.

In the case of `C=CCc1ccc(O)c(-c2ccc(O)c(CC=C)c2)c1` [honokiol], the “expression level of osteocalcin” value is “enhanced”.

(Values after patent US7803844B2, “Composition for preventing and/or treating bone disease, physiologically functional or health food containing thereof, and pharmaceutical containing thereof as active ingredients” (Erina Co. Inc., priority 2004, dated 2010).)
